Test [1] deals with human colon cancer cell line HCT-116. The test can be described thus: In vitro cell proliferation assay. Format: cell-based. Particulars: HCT-116, 72 hours of treatment, cell count, read-out: Cell Antiproliferation IC50. The method, then: The compounds of the invention were further tested, in vitro to assess the anti-proliferative effect onto cell cultures.
In Vitro Cell Proliferation Assay
The human colon cancer cell line HCT-116 was seeded at 5000 cells/cm^2 in 24 wells plate (Costar) using F12 medium (Gibco) supplemented with 10% FCS (EuroClone, Italy) 2 mM L-glutamine and 1% penicillin/streptomycin and maintained at 37° C., 5% CO2 and 96% relative humidity. The following day, plates were treated in duplicates with 5 ul of an appropriate dilution of compounds starting from a 10 mM stock in DMSO. Two untreated control wells were included in each plate. After 72 hours of treatment, medium was withdrawn and cells detached from each well using 0.5 mL of 0.05% (w/v) Trypsin, 0.02% (w/v) EDTA (Gibco). Samples were diluted with 9.5 mL of Isoton (Coulter) and counted using a Multisizer 3 cell counter (Beckman Coulter). Data were evaluated as percent of the control wells: % of CTR=(Treated−Blank)/(Control−Blank).
IC50 values were calculated by LSW/Data Analysis using Microsoft Excel sigmoidal curve fitting.

The next test addresses T1, Aurora-2 (Homo sapiens, UniProt O14965).
T1 sequence (O14965 1-403): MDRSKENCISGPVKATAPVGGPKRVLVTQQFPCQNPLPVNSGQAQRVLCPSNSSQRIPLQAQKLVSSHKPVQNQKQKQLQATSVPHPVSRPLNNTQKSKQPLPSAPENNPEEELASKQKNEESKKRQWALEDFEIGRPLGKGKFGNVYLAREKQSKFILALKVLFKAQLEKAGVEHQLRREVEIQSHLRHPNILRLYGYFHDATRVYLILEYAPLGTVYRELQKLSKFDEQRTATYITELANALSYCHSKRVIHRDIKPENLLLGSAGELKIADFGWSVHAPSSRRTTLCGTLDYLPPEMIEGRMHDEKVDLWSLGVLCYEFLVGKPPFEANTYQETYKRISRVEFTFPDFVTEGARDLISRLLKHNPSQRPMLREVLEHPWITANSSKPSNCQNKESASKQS
The test can be described thus: Inhibition assay of Aurora-2 activity (SPA). Format: biochemical. Particulars: 10 μM ATP, 60 minutes at room temperature. The protocol: The inhibiting activity and the potency of selected compounds is determined through a method of assay based on the use of the SPA technology (Amersham Pharmacia Biotech).
The assay consists of the transfer of radioactivity labelled phosphate moiety by the kinase to a biotinylated substrate. The resulting 33P-labelled biotinylated product is allowed to bind to streptavidin-coated SPA beads (biotin capacity 130 pmol/mg), and light emitted was measured in a scintillation counter.
Inhibition Assay of Aurora-2 Activity
Kinase reaction: 8 μM biotinylated peptide (4 repeats of LRRWSLG) (SEQ ID NO:2), 10 μM ATP (0.5 uCiP^33 γ-ATP), 7.5 ng Aurora 2, inhibitor in a final volume of 30 μl buffer (HEPES 50 mM pH 7.0, MgCl2 10 mM, 1 mM DTT, 0.2 mg/mL BSA, 3 μM orthovanadate) were added to each well of a 96 U bottom well plate. After 60 minutes at room temperature incubation, reaction was stopped and biotinylated peptide captured by adding 100 μl of bead suspension.
Stratification: 100 μl of CsCl 5 M were added to each well and let stand 4 hour before radioactivity was counted in the Top-Count instrument.
IC50 determination: inhibitors were tested at different concentrations ranging from 0.0015 to 10 μM. […]

For the compound `CC(C)(NC(=O)c1cc2c(NC(=O)c3ccccc3NC(=O)c3ccc[nH]3)n[nH]c2s1)c1ccccc1` [Compound (1), 3-{2-[(1H-pyrrole-2-carbonyl)-amino]-benzoylamino}-1H-thieno[2,3-c]pyrazole-5-carboxylic acid (1-methyl-1-phenyl-ethyl)-amide], the IC50 in test [1] came to 7 nM; against Aurora-2, 6 nM.
For `CC(C)(NC(=O)c1cc2c(NC(=O)c3ccccc3NC(=O)c3ccc[nH]3)n[nH]c2s1)c1ccccc1F` [Compound (2), 3-{2-[(1H-pyrrole-2-carbonyl)-amino]-benzoylamino}-1H-thieno[2,3-c]pyrazole-5-carboxylic acid [1-(2-fluoro-phenyl)-1-methyl-ethyl]-amide], the IC50 was 54 nM in test [1] and 12 nM at Aurora-2.
